Laboratory results: US20250066335A1, “POLYSUBSTITUTED 4-HYDROXYPYRIDINE AND 4-HYDROXYQUINOLINE DERIVATIVES AS GPR84 ANTAGONISTS” (UNIVERSITY OF COPENHAGEN, priority 2021, published 2025)
Where a name gives a salt, the structure may show the parent alone.

Each molecule was assayed against T1, GPR84 (Homo sapiens, UniProt Q9NQS5) (assay: PRESTO-Tango β-arrestin2 recruitment assay, GPR84 antagonistic activity). Details: antagonist activity in the Presto-TANGO assay; inhibition of the response from the agonist ZQ-16 (100 nM); HTLA cells.
T1 construct: expressed in transfected cells; host or cells: HTLA cells (HEK293 line stably expressing a tTA-dependent luciferase reporter and a β-arrestin2-TEV fusion gene), transiently transfected with PEI
T1 sequence (Q9NQS5 whole entry, the tested form may be a part): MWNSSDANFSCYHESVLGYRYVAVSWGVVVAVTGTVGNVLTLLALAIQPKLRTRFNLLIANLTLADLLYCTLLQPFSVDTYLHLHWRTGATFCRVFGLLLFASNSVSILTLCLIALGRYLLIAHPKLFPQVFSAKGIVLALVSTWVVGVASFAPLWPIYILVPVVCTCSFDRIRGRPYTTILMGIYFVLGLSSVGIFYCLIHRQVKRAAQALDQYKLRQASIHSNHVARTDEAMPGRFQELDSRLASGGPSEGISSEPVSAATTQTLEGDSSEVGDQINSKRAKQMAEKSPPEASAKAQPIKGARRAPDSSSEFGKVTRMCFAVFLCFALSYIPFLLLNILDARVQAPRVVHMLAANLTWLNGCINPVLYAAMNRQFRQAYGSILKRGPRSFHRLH
Assay type: cell-based
Experimental: PRESTO-Tango β-arrestin recruitment assay (W.K. Kroeze et al., 2015). HTLA cells (a HEK293 cell line stably expressing a tTA-dependent luciferase reporter and a β-arrestin2-TEV fusion gene) were maintained in Dulbecco's Modified Eagle's Medium (DMEM) supplemented with 10% Fetal Bovine Serum (dFBS), 100 U/mL penicillin and 100 μg/mL streptomycin, 2 μg/mL puromycin and 100 μg/mL hygromycin B in a humidified atmosphere at 37° C. in 5% CO2. For transfection, cells were plated at 9×10^6 to 10×10^6 cells per 15-cm cell-culture dish (day 1). The following day (day 2), cells were transfected by adding 5 μg DNA and 15 μg polyethylenimine (PEI) diluted in 1 mL Opti-MEM (Reduced Serum Medium supplied by ThermoFisher). On day 3, transfected cells were transferred at 25000 cells per well in 40 μl of medium into poly-l-lysine-coated and rinsed 384-well white, clear-bottomed cell-culture plates (Greiner Bio-One). On day 4, dilutions of the ligands to be tested were prepared in 1% dFBS DMEM and 10 μL were added to each well. On day 5, 20 μl per well of Bright-Glo solution (Promega) diluted 10-fold in assay buffer (Hanks' Balanced Salt Solution [HBSS], 20 mM HEPES, 1 mM CaCl2, 1 mM MgCl2, pH adjusted to 7.4 by 5 M NaOH) was added to each well. After incubation for 20 min at room temperature, luminescence was counted in an Enspire luminescence counter at 384 nm. Results in the form of relative luminescence units (RLU) were exported into Excel spreadsheets, and GraphPad Prism was used for analysis of data. To measure constitutive activity, no ligand was added on day 4.
The GPR84 antagonistic activity of the compounds was determined using the PRESTO-Tango β-arrestin2 recruitment assay (Assay I, see assays above), from which the concentration of each compound required for 50% inhibition (IC50) of the response from the agonist ZQ-16 (100 nM) was determined. The antagonistic activity for each compound is given in Table 1 as the pIC50, which is the negative log of the IC50 value when converted to molar.

| IC50 [nM] | SMILES |
| --- | --- |
| 5.37 | CCc1c(O)cc(OCC2COCCO2)nc1CCc1ccc(OCc2nc(C(=O)O)co2)cc1 (stereo not shown) [Example 48, 2-((4-(2-(6-((1,4-Dioxan-2-yl)methoxy)-3-ethyl-4-hydroxypyridin-2-yl)ethyl)phenoxy)methyl)oxazole-4-carboxylic acid] |
| 3.02 | CCCc1ccc(CCc2nc(OCC3COCCO3)cc(O)c2C)cc1 (stereo not shown) [Example 22, 6-((1,4-Dioxan-2-yl)methoxy)-3-methyl-2-(4-propylphenethyl)pyridin-4-ol] |
| 6.61 | CCCc1ccc(CCc2nc(OCC3CCCCO3)cc(O)c2CCC)cc1 (stereo not shown) [Example 7, 3-Propyl-2-(4-propylphenethyl)-6-((tetrahydro-2H-pyran-2-yl)methoxy)pyridin-4-ol] |
| 120 | CCCCc1ccc(-c2nc(OC[C@@H]3COCCO3)cc(O)c2CC)cc1 [Example 57, (S)-6-((1,4-dioxan-2-yl)methoxy)-2-(4-butylphenyl)-3-ethylpyridin-4-ol] |
| 23.4 | CCc1c(O)cc(OC[C@@H]2COCCO2)nc1CCCCc1ccccc1 [Example 56, (S)-6-((1,4-dioxan-2-yl)methoxy)-3-ethyl-2-(4-phenylbutyl)pyridin-4-ol] |
| 1.07 | CCOc1ccc(CCc2nc(OC[C@@H]3COCCO3)cc(O)c2C)cc1 [Example 24, (S)-6-((1,4-dioxan-2-yl)methoxy)-2-(4-ethoxyphenethyl)-3-methylpyridin-4-ol] |
| 1.29 | CCOc1ncc(CCc2nc(OCC3COCCO3)cc(O)c2CC)cc1F (stereo not shown) [Example 50, 6-((1,4-Dioxan-2-yl)methoxy)-2-(2-(6-ethoxy-5-fluoropyridin-3-yl)ethyl)-3-ethylpyridin-4-ol] |
| 17.8 | CC(=O)NCCOc1ccc(CCc2nc(OCC3COCCO3)cc(O)c2C)cc1 (stereo not shown) [Example 31, N-(2-(4-(2-(6-((1,4-dioxan-2-yl)methoxy)-4-hydroxy-3-methylpyridin-2-yl)ethyl)phenoxy)ethyl)acetamide] |
| 0.209 | CCc1c(O)cc(OCC2COCCO2)nc1CCc1ccc(OCCNC(=O)OC(C)(C)C)cc1 (stereo not shown) [Example 32, tert-Butyl (2-(4-(2-(6-((1,4-dioxan-2-yl)methoxy)-3-ethyl-4-hydroxypyridin-2-yl)ethyl)phenoxy)ethyl)carbamate] |
| 70.8 | CCCc1ccc(CCc2nc(OCC3CCCCO3)cc(O)c2-c2ccc(CC)cc2)cc1 (stereo not shown) [Example 16, 3-(4-Ethylphenyl)-2-(4-propylphenethyl)-6-((tetrahydro-2H-pyran-2-yl)methoxy)pyridin-4-ol] |
| 0.282 | Cc1c(O)cc(OCC2COCCO2)nc1CCc1ccc(OCCNC(=O)OC(C)(C)C)cc1 (stereo not shown) [Example 27, Tert-butyl (2-(4-(2-(6-((1,4-dioxan-2-yl)methoxy)-4-hydroxy-3-methylpyridin-2-yl)ethyl)phenoxy)ethyl)carbamate] |
| 16.2 | Cc1c(O)cc(OCC2COCCO2)nc1CCc1ccc(OCCN)cc1 (stereo not shown) [Example 29, 2-(4-(2-(6-((1,4-Dioxan-2-yl)methoxy)-4-hydroxy-3-methylpyridin-2-yl)ethyl)phenoxy)ethan-1-aminium chloride] |
| 0.776 | CCCc1ccc(CCc2nc(OCC3COCCO3)cc(O)c2CC)cc1 (stereo not shown) [Example 25, 6-((1,4-Dioxan-2-yl)methoxy)-3-ethyl-2-(4-propylphenethyl)pyridin-4-ol] |
| 2.14 | CCCc1ccc(CCc2nc(OCC3CCCCO3)cc(O)c2CC)cc1 (stereo not shown) [Example 6, 3-Ethyl-2-(4-propylphenethyl)-6-((tetrahydro-2H-pyran-2-yl)methoxy)pyridin-4-ol] |
| 0.832 | CCc1c(O)cc(OCC2COCCO2)nc1CCc1ccc(OCCCN)cc1 (stereo not shown) [Example 46, 6-((1,4-Dioxan-2-yl)methoxy)-2-(4-(3-aminopropoxy)phenethyl)-3-ethylpyridin-4-ol hydrochloride] |
| 2.34 | CCc1c(O)cc(OCC2COCCO2)nc1CCc1ccc(OCCN)cc1 (stereo not shown) [Example 45, 6-((1,4-Dioxan-2-yl)methoxy)-2-(4-(2-aminoethoxy)phenethyl)-3-ethylpyridin-4-ol hydrochloride] |
